Source: US5112805A, “Pharmaceutical preparation for promoting epithelial healing and prevention of epithelial destruction” (Labsystems, Oy, priority 1989, dated 1992)
“Also recorded” adds a separate entry of the source.

How the values were obtained:
[1] = tested on: corneal lesions; assay: Topical treatment of patients with corneal lesions, clinical response; type: in vivo, human; details: for clinical effect: used at first in patients 1, 3 and 4; for therapeutic effect: patient with bilateral acid corrosion
Experimental: Patients and control individuals. All patients reported here were treated in the Eye Clinic of the Helsinki Central University Hospital.
(§1) Proteinase inhibitor and fibronectin treatment. The patients received topical aprotinin (20 or 40 IU/ml), diluted from the stock preparation in sterile saline or commercially obtained wetting agent (Liquifilm Tears; Allergan), 1-2 drops (50 ul each) at 3 hour intervals. When applied, fibronectin (200 ug/ml) was administered 2-3 minutes after aprotinin treatment, also using 1-2 drops at a time.
After the success with this index case and similar experience with the first few additional patients the following therapeutic regimen was adopted. Patients with corneal ulcers were first treated for four days with conventional therapy including antimicrobial drugs according to laboratory findings or clinical picture. If no response was seen and if proteolytic activity was detected in the tear fluid, aprotinin therapy was initiated. In some cases with low activity in the initial or later tear fluid specimens, aprotinin was combined with topical fibronectin. In addition, in certain patients, such as in a patient with bilateral acid corrosion, no proteolytic activity was detected immediately after injury. […] In zymographic analysis the proteinase in the patient's tear fluid specimen comigrated with plasmin (data not shown). […] This patient will be described in detail elsewhere. However, a large proportion of patients with therapy-resistant corneal lesions of various categories (Table 2) had proteolytic activity and the above regimen was followed.

[2] = tested on: proteolytic plasmin-like activity in tear fluid; assay: Radial caseinolysis assay of tear fluid proteolytic activity with inhibitors added; type: biochemical, human
Experimental: (§2) Assay of proteolytic activity in tear fluids. Tear fluid was collected into a glass capillary. Proteolytic activity, using an 8 ul specimen of tear fluid, was measured by the radial caseinolysis procedure^23, using agarose gel and bovine milk casein as substrate. Human plasmin (20 casein units per mg; Kabi Diagnostica, Stockholm, Sweden) was used as standard. The results are expressed as micrograms of plasmin-like activity per milliliter tear fluid. Plasminogen activator levels were determined according to Saksela^23 using plasminogen-containing casein-agarose gels and urokinase (50 000 Plough units/ml; Calbiochem) as standard.
Proteinase inhibitors-Aprotinin (20 000 IU/ml Trasylol®, Bayer), L-cysteine (0.15M; E. Merck), heparin (2500 IU/ml Medica).

[3] = tested on: tear fluid plasmin-like activity; assay: Tear fluid plasmin-like activity of patients during therapy; type: in vivo, human
Experimental: as §2, §1

[4] = Side effects of aprotinin eye drops in patients; type: in vivo, human
Experimental: as §1

[5] = tested on: epithelium; details: published report on clinical use of fibronectin; cited from earlier work
[6] = Patient 1 tear fluid (11.6 without inhibitor), aprotinin 20 IU/ml, L-cysteine 0.075 M, heparin 1250 IU/ml
[7] = Patient 2 tear fluid (7.0 without inhibitor), aprotinin 20 IU/ml, L-cysteine 0.075 M, heparin 1250 IU/ml
[8] = Patient 8 tear fluid (6.0 without inhibitor), aprotinin 10 IU/ml, L-cysteine 0.075 M, heparin 1250 IU/ml
[9] = Patient 9 tear fluid (6.3 without inhibitor), aprotinin 10 IU/ml, L-cysteine 0.075 M, heparin 1250 IU/ml
[10] = tear fluid of patients 1, 2, 8 and 9 in vitro
[11] = tear fluids of patients with corneal lesions, in the assay

## N[C@@H](CS)C(=O)O [L-cysteine]
[1]; patient 4, topical L-cysteine therapy, no detectable microbial pathogens
  course of cornea during therapy: perforated spontaneously
[1]
  clinical effect: little or no clinical effect
[2]; [6]
  Proteolytic plasmin-like activity: 10.1 µg/mL
[2]; [7]
  Proteolytic plasmin-like activity: 7.2 µg/mL
[2]; [8]
  Proteolytic plasmin-like activity: 4.9 µg/mL
[2]; [9]
  Proteolytic plasmin-like activity: 5.5 µg/mL
[2]; [10]
  effect on the proteolytic activity of tear fluid: very little effect
[2]; [11]
  effect on the proteolytic activity of tear fluid: minimal inhibitory effect

## aprotinin
[3]; patient 2, 25 Nov, 7.0 on 1 Nov
  Tearfluid plasmin-like activity: < 0.1 µg/mL
[3]; patient 3, 4 Dec, 6.8 on 16 Nov
  Tearfluid plasmin-like activity: < 0.1 µg/mL
[3]; patient 4, 20 Dec, 5.5 on 25 Nov
  Tearfluid plasmin-like activity: < 0.1 µg/mL
[3]; patient 7, 10 Jan, 7.6 on 8 Jan, aprotinin 20 IU/ml from Jan 8
  Tearfluid plasmin-like activity: 4.7 µg/mL
[3]; patient 7, 16 Jan, aprotinin 20 IU/ml from Jan 8
  Tearfluid plasmin-like activity: 12.0 µg/mL
[3]; patient 7, 20 Jan, aprotinin 20 IU/ml from Jan 8
  Tearfluid plasmin-like activity: 12.5 µg/mL
[3]; patient 7, 22 Jan, aprotinin 40 IU/ml hourly from 20 Jan, fibronectin added Jan 22
  Tearfluid plasmin-like activity: 3.3 µg/mL
[3]; patient 8, 14 Feb
  Tearfluid plasmin-like activity: < 0.1 µg/mL
[3]; patient 8, 29 Jan, 6.0 on 6 Jan, 4.5 on 8 Jan during antibiotic therapy
  Tearfluid plasmin-like activity: 0.5 µg/mL
[3]; patient 8, 31 Jan
  Tearfluid plasmin-like activity: 0.5 µg/mL
[3]; patient 9, 13 Feb
  Tearfluid plasmin-like activity: < 0.1 µg/mL
[3]; patient 9, 20 Jan, 6.3 on 16 Jan, with topical antibiotics
  Tearfluid plasmin-like activity: 3.0 µg/mL
[3]; patient 9, 30 Jan
  Tearfluid plasmin-like activity: < 0.1 µg/mL
[3]; patient 10, 22 Jan, 10.3 on 20 Jan
  Tearfluid plasmin-like activity: 2.4 µg/mL
[3]; patient 10, 24 Jan
  Tearfluid plasmin-like activity: < 0.1 µg/mL
[3]; patient 11, 9 Feb
  Tearfluid plasmin-like activity: < 0.1 µg/mL
[3]; patient 11, 30 Jan, 3.1 on 21 Jan
  Tearfluid plasmin-like activity: 1.9 µg/mL
[3]; patient 12, 6 Feb
  Tearfluid plasmin-like activity: < 0.1 µg/mL
[3]; patient 12, 24 Jan, 20.0 on 22 Jan, with antibiotics
  Tearfluid plasmin-like activity: 12.4 µg/mL
[3]; patient 13, 3 Feb, 6.3 on 31 Jan, with topical acyclovir, antibiotics
  Tearfluid plasmin-like activity: 0.5 µg/mL
[3]; patient 13, 19 Feb
  Tearfluid plasmin-like activity: < 0.1 µg/mL
[4]; aprotinin eye drops, patient 4 (dry eyes, spontaneous perforation), five weeks
  outcome and complications of longest treatment: good results without corneal or other complications
[4]; topical aprotinin therapy, patients
  side effects: No side effects
[1]; all fifteen patients with proteolytic activity in tear fluid and corneal lesion, aprotinin, in some cases combined with fibronectin
  response to therapy: resulted in corneal epithelialization; also recorded: responded quickly
[1]; patient 1, novel therapy (aprotinin with fibronectin), after nine weeks of unsuccessful conventional treatment
  time to response: ≤ 24 h
[1]; patient 2, disciform keratitis, recurrent erosion for 1 week
  Recovery in: 4 days
[1]; patient 3, corneal erosion caused by soft contact lens, proteinase inhibitor therapy
  clinical response: improved rapidly
[1]; patient 3, soft contact lens user, recurrent corneal erosion
  Complete epithelialization in: 48 h
[1]; patient 4, corneal perforation, soft contact lens and antibiotics together with aprotinin
  clinical response: led to healing
[1]; patient 4, keratitis sicca, corneal perforation and ulcer
  duration of corneal healing: six
[1]; patient 7, Mooren's ulcer, 20 IU/ml, later (20 Jan on) 40 IU/ml hourly
  clinical response: successfully treated
[1]; patient 7, Mooren's ulcer, within a month after onset of aprotinin therapy
  ulcer area relative to original area: regressed into a third of its original area
[1]; patient 8, ulcus corneae, S. aureus, after onset of aprotinin
  complete healing in: 12 days
[1]; patient 9, deep corneal ulcer, topical antibiotics and aprotinin
  epithelialization: rapid
[1]; patient 10, giant papillary conjunctivitis
  epithelialization in: one
[1]; patient 12, absc. corneae, Moraxella, antibiotics and aprotinin
  Complete epithelialization in: 2 weeks
[1]; patient 13, herpes keratitis, new erosion, with topical acyclovir, antibiotics
  response to therapy: clear improvement
[1]; patient 14, blepharitis chronica
  condition improved in: 1 week
[1]; patient 15, conjunctivitis vernalis, punctate erosion
  condition improved in: 5 days
[1]; aprotinin therapy after failure of fibronectin
  therapeutic effect: rapid epithelization
[2]; [6]
  Proteolytic plasmin-like activity: < 0.1 µg/mL
[2]; [7]
  Proteolytic plasmin-like activity: < 0.1 µg/mL
[2]; Patient 7 tear fluid (7.6 without inhibitor), aprotinin 10 IU/ml
  Proteolytic plasmin-like activity: < 0.1 µg/mL
[2]; [8]
  Proteolytic plasmin-like activity: < 0.1 µg/mL
[2]; [9]
  Proteolytic plasmin-like activity: < 0.1 µg/mL
[2]; Patient 15 tear fluid (4.2 without inhibitor), aprotinin 10 IU/ml
  Proteolytic plasmin-like activity: < 0.1 µg/mL
[2]; [11]
  effect on the proteolytic activity of tear fluid: can be inhibited
[2]; tear fluids of patients with corneal lesions, in the assay, listed as Aprotinin
  effect on the proteolytic activity of tear fluid: inhibit effectively

## fibronectin
[5]
  time to healing of the epithelium: about 20 days
[1]; patient 1, topical fibronectin alone from Oct. 16, one day later
  appearance of corneal erosion: altered appearance
[1]; left eye, fibronectin applied 7 days later, tear fluid with plasmin-like activity
  therapeutic effect: no such therapeutic effect was observed
[1]; right eye, initial topical fibronectin, no proteolytic activity detected
  therapeutic effect: clear beneficial effect and epithelial healing

## heparin
[1]
  clinical effect: little or no clinical effect
[2]; [6]
  Proteolytic plasmin-like activity: 11.9 µg/mL
[2]; [7]
  Proteolytic plasmin-like activity: 7.8 µg/mL
[2]; [8]
  Proteolytic plasmin-like activity: 7.2 µg/mL
[2]; [9]
  Proteolytic plasmin-like activity: 6.8 µg/mL
[2]; [10]
  effect on the proteolytic activity of tear fluid: very little effect
[2]; [11]
  effect on the proteolytic activity of tear fluid: no effect
